# Experimental data taken from ChEMBL document CHEMBL4184100, “Discovery of 2-arylquinazoline derivatives as a new class of ASK1 inhibitors” (Bioorg Med Chem Lett, 2018).
# B1: Mitogen-activated protein kinase kinase kinase 5 (Homo sapiens), Q99683 (protein)
# chain: MSTEADEGITFSVPPFAPSGFCTIPEGGICRRGGAAAVGEGEEHQLPPPPPGSFWNVESAAAPGIGCPAATSSSSATRGRGSSVGGGSRRTTVAYVINEASQGQLVVAESEALQSLREACETVGATLETLHFGKLDFGETTVLDRFYNADIAVVEMSDAFRQPSLFYHLGVRESFSMANNIILYCDTNSDSLQSLKEIICQKNTMCTGNYTFVPYMITPHNKVYCCDSSFMKGLTELMQPNFELLLGPICLPLVDRFIQLLKVAQASSSQYFRESILNDIRKARNLYTGKELAAELARIRQRVDNIEVLTADIVINLLLSYRDIQDYDSIVKLVETLEKLPTFDLASHHHVKFHYAFALNRRNLPGDRAKALDIMIPMVQSEGQVASDMYCLVGRIYKDMFLDSNFTDTESRDHGASWFKKAFESEPTLQSGINYAVLLLAAGHQFESSFELRKVGVKLSSLLGKKGNLEKLQSYWEVGFFLGASVLANDHMRVIQASEKLFKLKTPAWYLKSIVETILIYKHFVKLTTEQPVAKQELVDFWMDFLVEATKTDVTVVRFPVLILEPTKIYQPSYLSINNEVEEKTISIWHVLPDDKKGIHEWNFSASSVRGVSISKFEERCCFLYVLHNSDDFQIYFCTELHCKKFFEMVNTITEEKGRSTEEGDCESDLLEYDYEYDENGDRVVLGKGTYGIVYAGRDLSNQVRIAIKEIPERDSRYSQPLHEEIALHKHLKHKNIVQYLGSFSENGFIKIFMEQVPGGSLSALLRSKWGPLKDNEQTIGFYTKQILEGLKYLHDNQIVHRDIKGDNVLINTYSGVLKISDFGTSKRLAGINPCTETFTGTLQYMAPEIIDKGPRGYGKAADIWSLGCTIIEMATGKPPFYELGEPQAAMFKVGMFKVHPEIPESMSAEAKAFILKCFEPDPDKRACANDLLVDEFLKVSSKKKKTQPKLSALSAGSNEYLRSISLPVPVLVEDTSSSSEYGSVSPDTELKVDPFSFKTRAKSCGERDVKGIRTLFLGIPDENFEDHSAPPSPEEKDSGFFMLRKDSERRATLHRILTEDQDKIVRNLMESLAQGAEEPKLKWEHITTLIASLREFVRSTDRKIIATTLSKLKLELDFDSHGISQVQVVLFGFQDAVNKVLRNHNIKPHWMFALDSIIRKAVQTAITILVPELRPHFSLASESDTADQEDLDVEDDHEEQPSNQTVRRPQAVIEDAVATSGVSTLSSTVSHDSQSAHRSLNVQLGRMKIETNRLLEELVRKEKELQALLHRAIEEKDQEIKHLKLKSQPIEIPELPVFHLNSSGTNTEDSELTDWLRVNGADEDTISRFLAEDYTLLDVLYYVTRDDLKCLRLRGGMLCTLWKAIIDFRNKQT
# Key:
# [1] = Stability in human liver microsomes; format: ADME, microsome; details: read-out: Stability
# [2] = Solubility of the compound in phosphate buffered saline at pH 7.4; format: physicochemical; details: buffer
# [3] = target: CYP3A4 (Homo sapiens, UniProt P08684); assay: Inhibition of CYP3A4 (unknown origin) at 10 uM relative to control; format: ADME
# [4] = target: T1, Mitogen-activated protein kinase kinase kinase 5 (Homo sapiens, UniProt Q99683); assay: Inhibition of stress-activated full length recombinant human N-terminal GST-tagged ASK1 expressed in baculovirus expression system using MKK6 as substrate pretreated for 10 mins followed by substrate addition by Alphascreen assay
# T1 sequence (Q99683 whole entry): B1 chain
# [5] = Stability in mouse liver microsomes; format: ADME, microsome; details: read-out: Stability
# [6] = target: CYP2C9 (Homo sapiens, UniProt P11712); assay: Inhibition of CYP2C9 (unknown origin) at 10 uM relative to control; format: ADME
# [7] = target: CYP2D6 (Homo sapiens, UniProt P10635); assay: Inhibition of CYP2D6 (unknown origin) at 10 uM relative to control; format: ADME
# [8] = Stability in rat liver microsomes; format: ADME, microsome; details: read-out: Stability
# [9] = target: T2, CYP1A2 (Homo sapiens, UniProt P05177); assay: Inhibition of CYP1A2 (unknown origin) at 10 uM relative to control; format: ADME
# T2 sequence (P05177 whole entry): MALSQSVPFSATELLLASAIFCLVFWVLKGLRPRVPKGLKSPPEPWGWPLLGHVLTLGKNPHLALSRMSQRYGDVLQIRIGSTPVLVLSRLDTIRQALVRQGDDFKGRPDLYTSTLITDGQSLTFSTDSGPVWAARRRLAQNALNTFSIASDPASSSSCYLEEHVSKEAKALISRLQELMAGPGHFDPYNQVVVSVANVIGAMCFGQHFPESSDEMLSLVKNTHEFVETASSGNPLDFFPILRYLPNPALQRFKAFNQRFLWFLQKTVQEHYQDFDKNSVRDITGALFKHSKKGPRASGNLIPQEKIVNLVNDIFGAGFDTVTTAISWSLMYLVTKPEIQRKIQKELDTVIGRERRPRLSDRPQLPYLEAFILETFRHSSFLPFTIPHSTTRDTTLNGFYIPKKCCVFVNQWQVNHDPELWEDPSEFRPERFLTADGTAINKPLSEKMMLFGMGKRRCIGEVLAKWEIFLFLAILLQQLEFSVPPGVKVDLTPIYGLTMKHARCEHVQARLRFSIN
# [10] = compound: CC(=O)Nc1cccc(Nc2ncc3ccccc3n2)c1; assay: ATP-competitive inhibition of full length recombinant human N-terminal GST-tagged ASK1 expressed in baculovirus expression system assessed as Km for substrate at 0.5 uM using MKK6 as substrate by Lineweaver-burk plot analysis (reference value: 6.08 +/- 0.4093 10^-6 M)
# [11] = compound: CC(=O)Nc1cccc(Nc2ncc3ccccc3n2)c1; assay: ATP-competitive inhibition of full length recombinant human N-terminal GST-tagged ASK1 expressed in baculovirus expression system assessed as Km for substrate at 1 uM using MKK6 as substrate by Lineweaver-burk plot analysis (reference value: 6.08 +/- 0.4093 10^-6 M)
# [12] = compound: CC(=O)Nc1cccc(Nc2ncc3ccccc3n2)c1; assay: ATP-competitive inhibition of full length recombinant human N-terminal GST-tagged ASK1 expressed in baculovirus expression system assessed as Km for substrate at 2 uM using MKK6 as substrate by Lineweaver-burk plot analysis (reference value: 6.08 +/- 0.4093 10^-6 M)
# Sequence of CYP2D6 (P10635 whole entry): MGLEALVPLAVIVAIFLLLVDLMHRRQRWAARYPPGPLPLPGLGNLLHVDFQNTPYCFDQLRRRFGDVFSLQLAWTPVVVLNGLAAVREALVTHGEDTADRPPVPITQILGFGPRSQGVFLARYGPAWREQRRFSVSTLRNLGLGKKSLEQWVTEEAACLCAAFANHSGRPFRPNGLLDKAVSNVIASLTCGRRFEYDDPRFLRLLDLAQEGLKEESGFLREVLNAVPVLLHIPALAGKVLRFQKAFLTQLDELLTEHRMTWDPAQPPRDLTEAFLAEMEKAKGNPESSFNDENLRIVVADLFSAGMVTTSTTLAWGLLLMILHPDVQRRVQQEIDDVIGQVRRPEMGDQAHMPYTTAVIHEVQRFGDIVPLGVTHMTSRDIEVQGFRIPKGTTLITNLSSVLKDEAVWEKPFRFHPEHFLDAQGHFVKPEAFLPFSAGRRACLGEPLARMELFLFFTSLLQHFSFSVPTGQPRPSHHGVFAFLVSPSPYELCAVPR
# Sequence of CYP3A4 (P08684 whole entry): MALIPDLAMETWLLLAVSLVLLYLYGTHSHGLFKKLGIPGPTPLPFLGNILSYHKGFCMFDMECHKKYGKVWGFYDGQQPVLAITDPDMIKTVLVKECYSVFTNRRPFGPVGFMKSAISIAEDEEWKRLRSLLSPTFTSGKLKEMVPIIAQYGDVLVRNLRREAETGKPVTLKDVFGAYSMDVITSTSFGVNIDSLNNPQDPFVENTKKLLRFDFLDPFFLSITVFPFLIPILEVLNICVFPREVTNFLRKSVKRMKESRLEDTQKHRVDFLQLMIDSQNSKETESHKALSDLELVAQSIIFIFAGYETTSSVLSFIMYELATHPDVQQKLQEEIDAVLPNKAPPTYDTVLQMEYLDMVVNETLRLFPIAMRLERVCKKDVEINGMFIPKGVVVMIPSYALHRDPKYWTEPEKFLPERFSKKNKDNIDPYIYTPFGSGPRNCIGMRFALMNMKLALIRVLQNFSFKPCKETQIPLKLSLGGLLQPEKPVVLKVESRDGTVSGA
# Sequence of CYP2C9 (P11712 whole entry): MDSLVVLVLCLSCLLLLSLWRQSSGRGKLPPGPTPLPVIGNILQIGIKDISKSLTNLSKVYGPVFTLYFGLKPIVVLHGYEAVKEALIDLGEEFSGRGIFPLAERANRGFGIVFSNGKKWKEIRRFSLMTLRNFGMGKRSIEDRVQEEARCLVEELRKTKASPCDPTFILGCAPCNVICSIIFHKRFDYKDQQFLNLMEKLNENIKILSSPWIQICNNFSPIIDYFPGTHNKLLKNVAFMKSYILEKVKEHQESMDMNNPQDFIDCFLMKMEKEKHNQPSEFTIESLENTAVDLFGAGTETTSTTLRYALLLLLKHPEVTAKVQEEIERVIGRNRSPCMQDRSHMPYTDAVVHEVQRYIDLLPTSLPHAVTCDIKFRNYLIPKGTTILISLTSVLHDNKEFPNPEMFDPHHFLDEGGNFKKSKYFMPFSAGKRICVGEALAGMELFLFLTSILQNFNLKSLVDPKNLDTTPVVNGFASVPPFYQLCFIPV
Molecule,IC50 [4] [µM],further results
Nc1cccc(Nc2ncc3cc(-c4cn[nH]c4)ccc3n2)c1,0.6,half-life [1]: 29 min; solubility [2]: 17 µM; inhibition at 10 µM [3]: 52%; half-life [5]: 2 min; inhibition at 10 µM [6]: 93%; inhibition at 10 µM [7]: 56%; half-life [8]: 3 min; inhibition at 10 µM [9]: 67%
Cn1cc(-c2ccc3nc(Nc4cccc(N)c4)ncc3c2)cn1,> 10,
Nc1cccc(Nc2ncc3cc(-c4cccc(N)c4)ccc3n2)c1,> 10,
Fc1ccc(Nc2ncnc3[nH]cnc23)cc1,> 10,
Fc1ccc(Nc2ncc3ccccc3n2)cc1,> 10,
CC(C)(C)C(=O)N(c1ccccc1)c1cccc(Nc2ncc3cc(-c4cn[nH]c4)ccc3n2)c1,> 10,
c1ccc(Nc2ncnc3nc[nH]c23)cc1,> 10,
CN(C)c1cccc(Nc2nccc(NCCOc3ccccc3)n2)c1,2,
Fc1ccc(Nc2ncc3cc(Br)ccc3n2)cc1,> 10,
Clc1cccc(Nc2ncnc3[nH]cnc23)c1,> 10,
c1ccc(Nc2ncc3cc(-c4cn[nH]c4)ccc3n2)cc1,> 10,
Cn1cc(-c2ccc3nc(Nc4cccc(N(C(=O)C(C)(C)C)c5ccccc5)c4)ncc3c2)cn1,> 10,
CC(=O)Nc1cccc(Nc2ncc3cc(Br)ccc3n2)c1,> 10,
c1ccc(Nc2ncc3ccccc3n2)cc1,> 10,
CC(=O)Nc1cccc(Nc2ncc3cc(-c4cccc(N)c4)ccc3n2)c1,> 10,
Nc1cccc(-c2ccc3nc(Nc4ccccc4)ncc3c2)c1,> 10,
Nc1cccc(Nc2ncc3ccccc3n2)c1,> 10,
Clc1cccc(Nc2ncc3ccccc3n2)c1,> 10,
Nc1cccc(Nc2ncc3cc(Br)ccc3n2)c1,> 10,
Cn1cc(-c2ccc3nc(Nc4ccccc4)ncc3c2)cn1,> 10,
Brc1ccc2nc(Nc3ccccc3)ncc2c1,> 10,
CC(=O)Nc1cccc(Nc2ncnc3[nH]cnc23)c1,> 10,
CC(C)(C)C(=O)N(c1ccccc1)c1cccc(Nc2ncc3cc(Br)ccc3n2)c1,> 10,
CN(C)c1cccc(Nc2ncnc3[nH]cnc23)c1,> 10,
CC(=O)Nc1cccc(Nc2ncc3cc(-c4cn[nH]c4)ccc3n2)c1,0.2,half-life [1]: 42 min; solubility [2]: 10 µM; inhibition at 10 µM [3]: 88%; half-life [5]: 2 min; inhibition at 10 µM [6]: 98%; inhibition at 10 µM [7]: 52%; half-life [8]: 4 min; inhibition at 10 µM [9]: 49%
CC(=O)Nc1cccc(Nc2ncc3cc(-c4cnn(C)c4)ccc3n2)c1,> 10,
B1,,Km [10]: 7.01 µM; Km [11]: 7.79 µM; Km [12]: 9.3 µM
